# pIC50: −log10 of the molar value.
# Assays:
# human CXCR3A = human CXCR3A (Homo sapiens (Human), UniProt P49682); test: FLIPR assay; assay type: cell-based; conditions: CHO-K1 cells expressing the human CXCR3A coupled to Galpha(16); CXCL10 agonist 20 nM; Fluo-4-AM fluorescence; mean values if determined several times
# Protocol: The bioactivity of compounds is tested in a fluorometric imaging plate reader (FLIPR: Molecular Devices) using engineered CHO-K1 cells expressing the human CXCR3A coupled to a G protein (Galpha(16)). Cells are plated the day prior to bioassay in F12 medium supplemented with 10% FBS and G418 and hygromycin antibiotics to maintain recombinant selection. At the day of bioassay, cells are washed and dye loaded for one hour with Fluo-4-AM (Invitrogen) in Hanks Balanced Salt Solution (Invitrogen), buffered with 20 mM Hepes at pH 7.4 and sodium bicarbonate (0.015%), containing 5 mM probenecid. […] Cells are washed free of excess dye and 60 microliter of wash buffer is added. Stock solutions of test compounds are made up at a concentration of 10 mM in DMSO, and serially diluted in dilution buffer to concentrations required for inhibition dose response curves. After a 10 minute incubation period at 37° C., 10 microliters of each compound dilution are transferred from a compound plate to the plate containing the recombinant cells in the FLIPR instrument according to the manufacturer's instructions. Following basal readings, 10 microliter CXCL10 agonist at a concentration of 20 nM (from Peprotech) is added, again using the FLIPR instrument. Changes in fluorescence are monitored before and after addition of the test compounds. Emission peak values above base level after CXCL10 addition are exported after base line subtraction. The program XLfit is used to fit the data to a single site dose response curve and to calculate IC50 values.
# CXCR3 = CXCR3 (Homo sapiens (Human), UniProt P49682); test: Receptor internalization assay; assay type: cell-based; conditions: human whole blood; final CXCL10 concentration 9 nM; 30 min 37° C.; CXCR3 cell surface expression on CD3 positive cells, flow cytometer; read-out: Internalization IC50
# Chain of CXCR3 (P49682 whole entry): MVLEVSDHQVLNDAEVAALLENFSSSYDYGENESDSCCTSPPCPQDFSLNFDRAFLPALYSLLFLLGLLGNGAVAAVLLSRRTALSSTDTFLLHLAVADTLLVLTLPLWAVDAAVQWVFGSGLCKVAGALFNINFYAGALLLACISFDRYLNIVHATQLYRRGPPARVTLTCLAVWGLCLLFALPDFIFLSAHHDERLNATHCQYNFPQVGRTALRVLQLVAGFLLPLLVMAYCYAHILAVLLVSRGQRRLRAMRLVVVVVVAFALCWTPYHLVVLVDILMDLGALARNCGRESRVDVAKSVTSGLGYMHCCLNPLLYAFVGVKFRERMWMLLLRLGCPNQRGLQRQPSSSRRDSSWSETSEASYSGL
# Protocol: B): Receptor Internalization Assay:
# Stock solutions of test compounds are made up at a concentration of 10 mM in DMSO, and serially diluted in PBS containing 0.5% BSA to concentrations required for inhibition dose response curves. Diluted compounds are then mixed with an equal volume of CXCL10 (Peprotech) diluted in PBS. Anticoagulated venous human whole blood is added to the mixture, which is then incubated in a CO2 incubator at 37° C. to allow for ligand mediated receptor internalization (final CXCL10 concentration is 9 nM). After 30′, the blood is mixed with fluorescently labeled CXCR3 and CD3 specific antibodies (Becton Dickinson) and incubated on ice for 10 minutes. Samples are then mixed with BD FACS Lysing Solution (Becton Dickinson) in order to eliminate red blood cells. After washing the cells with PBS containing 0.5% BSA, the samples are then analyzed in a flow cytometer (FACS Canto II, Becton Dickinson). For data analysis using FACSDiva software (Becton Dickinson), the mean fluorescence corresponding to CXCR3 cell surface expression was determined on CD3 positive cells. The program GraphPad Prism is used to fit the data to a single site dose response curve and to calculate IC50 values.
# Chain of human CXCR3A (P49682 whole entry): as above
Structure (SMILES),pIC50 (human CXCR3A),pIC50 (CXCR3)
"C[C@@H]1CN(c2scnc2-c2nc3ccc(Cl)cc3[nH]2)CCN1C(=O)Cn1cnc2cccnc21 [Example 83, 1-{(R)-4-[4-(6-Chloro-1H-benzoimidazol-2-yl)-thiazol-5-yl]-2-methyl-piperazin-1-yl}-2-imidazo[4,5-b]pyridin-3-yl-ethanone]",9.00,6.47
"C[C@@H]1CN(c2scnc2-c2nc3ccccc3[nH]2)CCN1C(=O)Cn1cnc2cnccc21 [Example 138, 1-{(R)-4-[4-(1H-Benzoimidazol-2-yl)-thiazol-5-yl]-2-methyl-piperazin-1-yl}-2-imidazo[4,5-c]pyridin-1-yl-ethanone]",8.40,5.96
"C[C@@H]1CN(c2sc(C(F)(F)F)nc2-c2nc3ccccc3[nH]2)CCN1C(=O)Cn1cncn1 [Example 194, 1-{(R)-4-[4-(1H-Benzoimidazol-2-yl)-2-trifluoromethyl-thiazol-5-yl]-2-methyl-piperazin-1-yl}-2-[1,2,4]triazol-1-yl-ethanone]",8.10,5.85
"C[C@@H]1CN(c2sc(C(F)(F)F)nc2-c2nc3ccccc3[nH]2)CCN1C(=O)Cn1cnc2cccnc21 [Example 51, 1-{(R)-4-[4-(1H-Benzoimidazol-2-yl)-2-trifluoromethyl-thiazol-5-yl]-2-methyl-piperazin-1-yl}-2-imidazo[4,5-b]pyridin-3-yl-ethanone]",9.00,7.18
"C[C@@H]1CN(c2scnc2-c2nc3c(F)cccc3[nH]2)CCN1C(=O)Cn1ccc2cccnc21 [Example 21, 1-{(R)-4-[4-(4-Fluoro-1H-benzoimidazol-2-yl)-thiazol-5-yl]-2-methyl-piperazin-1-yl}-2-pyrrolo[2,3-b]pyridin-1-yl-ethanone]",8.70,–
"C[C@@H]1CN(c2scnc2-c2nc3c(F)cccc3[nH]2)CCN1C(=O)Cn1cnc2cccnc21 [Example 97, 1-{(R)-4-[4-(4-Fluoro-1H-benzoimidazol-2-yl)-thiazol-5-yl]-2-methyl-piperazin-1-yl}-2-imidazo[4,5-b]pyridin-3-yl-ethanone]",8.70,–
"C[C@@H]1CN(c2sc(CCC(=O)O)nc2-c2nc3ccccc3[nH]2)CCN1C(=O)Cn1ccc2cccnc21 [Example 224, 3-{4-(1H-Benzoimidazol-2-yl)-5-[(R)-3-methyl-4-(2-pyrrolo[2,3-b]pyridin-1-yl-acetyl)-piperazin-1-yl]-thiazol-2-yl}-propionic acid]",7.00,–
"C[C@@H]1CN(c2scnc2-c2nc3ccccc3[nH]2)CCN1C(=O)Cc1ccc2ccccc2c1 [Example 117, 1-{(R)-4-[4-(1H-Benzoimidazol-2-yl)-thiazol-5-yl]-2-methyl-piperazin-1-yl}-2-naphthalen-2-yl-ethanone]",7.12,–
"C[C@@H]1CN(c2scnc2-c2nc3c(F)c(F)ccc3[nH]2)CCN1C(=O)Cn1ccc2cccnc21 [Example 28, 1-{(R)-4-[4-(4,5-Difluoro-1H-benzoimidazol-2-yl)-thiazol-5-yl]-2-methyl-piperazin-1-yl}-2-pyrrolo[2,3-b]pyridin-1-yl-ethanone]",9.00,–
"C[C@@H]1CN(c2scnc2-c2nc3ccccc3n2C)CCN1C(=O)Cn1cnc2cccnc21 [Example 98, 2-Imidazo[4,5-b]pyridin-3-yl-1-{(R)-2-methyl-4-[4-(1-methyl-1H-benzoimidazol-2-yl)-thiazol-5-yl]-piperazin-1-yl}-ethanone]",8.05,–
"C[C@@H]1CN(c2scnc2-c2nc3ccccc3[nH]2)CCN1C(=O)Cc1c[nH]c2ccccc12 [Example 124, 1-{(R)-4-[4-(1H-Benzoimidazol-2-yl)-thiazol-5-yl]-2-methyl-piperazin-1-yl}-2-(1H-indol-3-yl)-ethanone]",8.00,–
"C[C@@H]1CN(c2scnc2-c2nc3cc(Cl)c(F)cc3[nH]2)CCN1C(=O)Cn1cnc2cccnc21 [Example 89, 1-{(R)-4-[4-(5-Chloro-6-fluoro-1H-benzoimidazol-2-yl)-thiazol-5-yl]-2-methyl-piperazin-1-yl}-2-imidazo[4,5-b]pyridin-3-yl-ethanone]",9.00,–
"C[C@@H]1CN(c2scnc2-c2nc3ccccc3[nH]2)CCN1C(=O)Cc1nc2cc(Cl)ccc2[nH]1 [Example 129, 1-{(R)-4-[4-(1H-Benzoimidazol-2-yl)-thiazol-5-yl]-2-methyl-piperazin-1-yl}-2-(5-chloro-1H-benzoimidazol-2-yl)-ethanone]",6.96,–

# The remaining lines, values ahead:
pIC50 (human CXCR3A),pIC50 (CXCR3),Structure (SMILES)
7.96,5.74,"O=C(Cn1cnc2cccnc21)N1CCN(c2scnc2-c2nc3ccccc3[nH]2)CC1 [Example 14, 1-{4-[4-(1H-Benzoimidazol-2-yl)-thiazol-5-yl]-piperazin-1-yl}-2-imidazo[4,5-b]pyridin-3-yl-ethanone]"
8.22,5.96,"C[C@@H]1CN(c2scnc2-c2nc3ccccc3[nH]2)CCN1C(=O)Cn1c(=O)oc2cccnc21 [Example 155, 3-(2-{(R)-4-[4-(1H-Benzoimidazol-2-yl)-thiazol-5-yl]-2-methyl-piperazin-1-yl}-2-oxo-ethyl)-3H-oxazolo[4,5-b]pyridin-2-one]"
8.40,5.78,"O=C(Cn1ccc2cc(F)ccc21)N1CCN(c2scnc2-c2nc3ccccc3[nH]2)CC1 [Example 55, 1-{4-[4-(1 H-Benzoimidazol-2-yl)-thiazol-5-yl]-piperazin-1-yl}-2-(5-fluoro-indol-1-yl)-ethanone]"
8.00,–,"Cn1c(=O)n(CC(=O)N2CCN(c3scnc3-c3nc4ccc(F)cc4[nH]3)CC2)c2ccccc21 [Example 34, 1-(2-{4-[4-(6-Fluoro-1H-benzoimidazol-2-yl)-thiazol-5-yl]-piperazin-1-yl}-2-oxo-ethyl)-3-methyl-1,3-dihydro-benzoimidazol-2-one]"
8.30,–,"COc1ccc2[nH]c(-c3ncsc3N3CCN(C(=O)Cn4c(=O)n(C)c5ccccc54)CC3)nc2c1 [Example 33, 1-(2-{4-[4-(5-Methoxy-1H-benzoimidazol-2-yl)-thiazol-5-yl]-piperazin-1-yl}-2-oxo-ethyl)-3-methyl-1,3-dihydro-benzoimidazol-2-one]"
7.89,–,"Cc1ccc2ccn(CC(=O)N3CCN(c4scnc4-c4nc5ccccc5[nH]4)CC3)c2n1 [Example 70, 1-{4-[4-(1H-Benzoimidazol-2-yl)-thiazol-5-yl]-piperazin-1-yl}-2-(6-methyl-pyrrolo[2,3-b]pyridin-1-yl)-ethanone]"
6.31,–,"O=C(Cc1cccnc1)N1CCN(c2scnc2-c2nc3ccccc3[nH]2)CC1 [Example 110, 1-{4-[4-(1H-Benzoimidazol-2-yl)-thiazol-5-yl]-piperazin-1-yl}-2-pyridin-3-yl-ethanone]"
7.82,–,"O=C(Cn1ccc2cc(Cl)c(Cl)cc21)N1CCN(c2scnc2-c2nc3ccccc3[nH]2)CC1 [Example 53, 1-{4-[4-(1H-Benzoimidazol-2-yl)-thiazol-5-yl]-piperazin-1-yl}-2-(5,6-dichloro-indol-1-yl)-ethanone]"
8.00,–,"Cn1c(=O)n(CC(=O)N2CCN(c3scnc3-c3nc4c(O)cccc4[nH]3)CC2)c2ccccc21 [Example 112, 1-(2-{4-[4-(4-Hydroxy-1H-benzoimidazol-2-yl)-thiazol-5-yl]-piperazin-1-yl}-2-oxo-ethyl)-3-methyl-1,3-dihydro-benzoimidazol-2-one]"
7.85,–,"Cn1c(=O)n(CC(=O)N2CCN(c3scnc3-c3nc4cc(OCCO)ccc4[nH]3)CC2)c2ccccc21 [Example 101, 1-[2-(4-{4-[5-(2-Hydroxy-ethoxy)-1H-benzoimidazol-2-yl]thiazol-5-yl}-piperazin-1-yl)-2-oxo-ethyl]-3-methyl-1,3-dihydro-benzoimidazol-2-one]"
6.87,–,"COc1cccc2c1ccn2CC(=O)N1CCN(c2scnc2-c2nc3ccccc3[nH]2)CC1 [Example 52, 1-{4-[4-(1H-Benzoimidazol-2-yl)-thiazol-5-yl]-piperazin-1-yl}-2-(4-methoxy-indol-1-yl)-ethanone]"
6.50,–,"COc1ccc2onc(CC(=O)N3CCN(c4scnc4-c4nc5ccccc5[nH]4)CC3)c2c1 [Example 12, 1-{4-[4-(1H-Benzoimidazol-2-yl)-thiazol-5-yl]-piperazin-1-yl}-2-(5-methoxy-benzo[d]isoxazol-3-yl)-ethanone]"
6.51,–,"Cc1nc(C)c(CC(=O)N2CCN(c3scnc3-c3nc4ccccc4[nH]3)CC2)s1 [Example 11, 1-{4-[4-(1H-Benzoimidazol-2-yl)-thiazol-5-yl]-piperazin-1-yl}-2-(2,4-dimethyl-thiazol-5-yl)-ethanone]"

# — patent US9266876B2 (Actelion Pharmaceuticals Ltd., priority 2012, dated 2016)
